Biological target: T1, hBPGM (Homo sapiens, UniProt P07738)
T1 sequence (P07738 1-259): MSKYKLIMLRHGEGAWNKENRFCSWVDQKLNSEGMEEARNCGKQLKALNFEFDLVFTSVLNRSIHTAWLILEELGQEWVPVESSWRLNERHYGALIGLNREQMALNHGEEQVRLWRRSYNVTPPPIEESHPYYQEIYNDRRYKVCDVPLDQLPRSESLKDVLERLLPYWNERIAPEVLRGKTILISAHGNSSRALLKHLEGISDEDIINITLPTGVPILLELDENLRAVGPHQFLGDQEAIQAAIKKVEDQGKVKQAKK
Test: BPGM synthase assay
Assay type: biochemical
Conditions: Table 6; read-out: huBPGM: synthase Enzyme IC50
Procedure: The following materials were used in this assay: deionized water; Bisphosphoglycerate mutase (BPGM; Standard Buffer: 50 mM Tris, 0.01% Tween 20, pH 7.4); BPGM Reaction Buffer (50 mM Tris, 0.01% Tween 20, 3.23 mM KH2PO4, pH 7.4); dithiothreitol (DTT; Stock solution: 100 mM in Standard Buffer); 384-Well Black Assay Plate (Corning, P/N 3575); DMSO; BPGM Stock Solution (500 nM in BPGM Standard Buffer); Glyceraldehyde 3-phosphate dehydrogenase (GAPDH; Stock Solution: 40 U/mL in 20 mM Tris-HCL Buffer with 20% Glycerol, 1 mM EDTA, 1 mM DTT); Glyceraldehyde 3-phosphate (GAP; Stock Solution: 20 mM in BPGM Standard Buffer); 3-PG Stock Solution (500 μM in BPGM Standard Buffer); Nicotinamide adenine dinucleotide (NAD; Stock Solution: 50 mM in BPGM Standard Buffer); Koningic Acid (1 mM Stock in DMSO); Resazurin Stock Solution (10 mM in DMSO); Diaphorase Stock Solution (40 U/mL in BPGM Standard Buffer); DTT Reaction Buffer (1 mM DTT in BPGM Reaction Buffer); Enzyme Solution (5 nM BPGM, 0.4 U/mL GAPDH in DTT Reaction Buffer); GAPDH Solution (0.4 U/mL GAPDH in DTT Reaction Buffer); Substrate Solution (2 mM NAD, 20 μM 3PG, 800 μM GAP in DTT Reaction Buffer); and Resazurin Solution (5 U/mL Diaphorase, 500 μM Resazurin in BPGM Standard Buffer).
To the assay plate was added Enzyme Solution (20 uL) to columns 2-22 and 24 of the assay plate. To columns 1 and 23 was added GAPDH Solution (20 uL). A separate compound plate was prepared at the desired concentrations and all wells were normalized with 5% DMSO. The compound plate was incubated for 30 minutes at RT. Next, the substrate solution (20 μL) was dispensed to all reaction wells and the plate was incubated for 60 minutes at RT. Koningic acid (1 μL) was added and the plate was incubated for 10 minutes at RT. During this time period, the NADH fluorescence was read at ex: 360/em: 460. Next, Resazurin Solution (10 μL) was added to all reaction wells and the plate was incubated for 30 minutes at RT. The resorufin fluorescence was then read at ex:544/em:590.

| SMILES | IC50 [nM] |
| --- | --- |
| Cc1nc(COc2ncccn2)sc1-c1ccnc(-c2cc(O)c(C#N)c(F)c2)c1 [Example 24] | 250 |
| Cc1nc(C(=O)N2CCC(O)C2)sc1-c1cccc(-c2cc(F)c3[nH]nnc3c2F)n1 (stereo not drawn) [Example 25] | 4400 |
| Cc1nc(CN/C(=N/C#N)N(C)C)sc1-c1cccc(-c2cc(F)c(O)c(F)c2F)n1 [Example 27] | 1500 |
| Cc1nc(CNC(=O)N(C)C)sc1-c1cccc(-c2cc(F)c(O)c(F)c2F)n1 [Example 28] | 1600 |
| Cc1nc(COC(=O)N2CCC(N)C2)sc1-c1cccc(-c2cc(F)c(O)c(F)c2F)n1 (stereo not drawn) [Example 29] | 5700 |
| Cc1nc(COc2ncccn2)sc1-c1csc(-c2cc(F)c(C#N)c(O)c2F)n1 [Example 33] | 250 |
| COCc1nc(C)c(-c2cccc(-c3cc(F)c4nn[nH]c4c3F)n2)s1 [Example 34] | 250 |
| Cc1nc(COC(=O)N2CCC(O)C2)sc1-c1cccc(-c2cc(F)c(O)c(F)c2F)n1 (stereo not drawn) [Example 35] | 600 |
| Cc1nc(COC(=O)N(C)CCN(C)C)sc1-c1cccc(-c2cc(F)c(O)c(F)c2F)n1 [Example 36] | 1300 |
| Cc1nc(C)c(-c2cnn(-c3cc(F)c4[nH]nnc4c3F)c2)s1 [Example 37] | 13000 |
| Cc1nc(C)c(-c2ccn(-c3cc(F)c4[nH]nnc4c3F)n2)s1 [Example 42] | 4100 |
| Cc1nc(CNc2ncccn2)sc1-c1csc(-c2cc(F)c3[nH]nnc3c2F)n1 [Example 51] | 280 |
| Cc1nc(CN(C)C)sc1-c1cccc(-c2cc(F)c3nn[nH]c3c2F)n1 [Example 52] | 390 |
| Cc1nc(CNCC(=O)N(C)C)sc1-c1cccc(-c2cc(F)c3nn[nH]c3c2F)n1 [Example 53] | 890 |
| Cc1nc(CNCC(C)(C)C)sc1-c1cccc(-c2cc(F)c3nn[nH]c3c2F)n1 [Example 56] | 260 |
| Cc1nc(COc2ncccn2)sc1-c1ccnc(-c2cc(F)c(O)c(F)c2F)c1 [Example 57] | 290 |
| Cc1nc(COc2ncccn2)sc1-c1ccnc(-c2cc(F)c(O)c(C#N)c2)c1 [Example 58] | 1900 |
| Cc1nc(CNC(=O)N2CCC(O)C2)sc1-c1cccc(-c2cc(F)c3nn[nH]c3c2F)n1 (stereo not drawn) [Example 61] | 220 |
| Cc1nc(COC(=O)N2CCC(O)C2)sc1-c1cccc(-c2cc(F)c3nn[nH]c3c2F)c1 (stereo not drawn) [Example 62] | 350 |

| SMILES | IC50 [nM] |
| --- | --- |
| CNCc1nc(C)c(-c2cccc(-c3cc(F)c4nn[nH]c4c3F)n2)s1 [Example 63] | 1400 |
| CC(=O)N(C)Cc1nc(C)c(-c2cccc(-c3cc(F)c4nn[nH]c4c3F)n2)s1 [Example 65] | 280 |
| Cc1nc(COc2ncccn2)sc1-c1nc(-c2cc(O)c(C#N)c(F)c2)cs1 [Example 71] | 300 |
| Cc1nc(COc2ncccn2)sc1-c1nc(-c2cc(F)c(O)c(C#N)c2)cs1 [Example 72] | 510 |
| Cc1nc(COc2ncccn2)sc1-c1cccc(-c2nnn[nH]2)n1 [Example 73] | > 25000 |
| Cc1nc(COc2ncccn2)sc1-c1cccc(-c2cc(O)c(C#N)c(F)c2)n1 [Example 74] | 290 |
| Cc1nc(COC(=O)N2CCC(O)C2)sc1-c1csc(-c2cc(F)c3[nH]nnc3c2F)n1 (stereo not drawn) [Example 75] | 440 |
| Cc1nc(COCC(=O)N2CCC(O)C2)sc1-c1cccc(-c2cc(F)c3nn[nH]c3c2F)n1 (stereo not drawn) [Example 76] | 1100 |
| Cc1nc(COc2cccnn2)sc1-c1nc(-c2cc(F)c(O)c(F)c2F)cs1 [Example 77] | 1300 |
| Cc1nc(COCC(=O)N2CCC(O)C2)sc1-c1csc(-c2cc(F)c3[nH]nnc3c2F)n1 (stereo not drawn) [Example 78] | 1500 |
| Cc1nc(COC(=O)N2CCC(O)C2)sc1-c1csc(-c2cc(F)c(O)c(F)c2F)n1 (stereo not drawn) [Example 79] | 2400 |
| Cc1nc(CNC(=O)N2CCC(O)C2)sc1-c1csc(-c2cc(F)c3[nH]nnc3c2F)n1 (stereo not drawn) [Example 80] | 2800 |
| Cc1nc(COc2ccccn2)sc1-c1csc(-c2cc(F)c(OP(=O)(O)O)c(F)c2F)n1 [Example 81] | 3000 |
| Cc1nc(COc2ccccn2)sc1-c1csc(-c2cc(F)c3[nH]nnc3c2F)n1 [Example 82] | 3600 |
| Cc1nc(CNC(=O)C2CN(C)C2)sc1-c1csc(-c2cc(F)c(O)c(F)c2F)n1 [Example 83] | > 25000 |
| Cc1nc(CNc2ncc(C(F)(F)F)cn2)sc1-c1csc(-c2cc(F)c(O)c(F)c2F)n1 [Example 84] | > 25000 |
| Cc1nc(CO)sc1-c1csc(-c2cc(F)c3[nH]nnc3c2F)n1 [Example 87] | 380 |
| Cc1nc(CNc2cccnn2)sc1-c1csc(-c2cc(F)c(O)c(F)c2F)n1 [Example 89] | 280 |

The next lines start with the values.

| IC50 [nM] | SMILES |
| --- | --- |
| 110 | Cc1nc(CN2CCCC2=O)sc1-c1cccc(-c2cc(F)c3nn[nH]c3c2F)n1 [Example 26] |
| 200 | Cc1nc(NC(=O)OC(C)(C)C)sc1-c1cccc(-c2cc(F)c3[nH]nnc3c2F)n1 [Example 30] |
| 35 | Cc1nc(COC(=O)N2CCC(C)(O)C2)sc1-c1cccc(-c2cc(F)c3[nH]nnc3c2F)n1 (stereo not drawn) [Example 31] |
| 76 | Cc1nc(COC(=O)N2CCC(N(C)C)C2)sc1-c1cccc(-c2cc(F)c3nn[nH]c3c2F)n1 (stereo not drawn) [Example 32] |
| 36 | Cc1nc(COc2cccnn2)sc1-c1csc(-c2cc(F)c3[nH]nnc3c2F)n1 [Example 38] |
| 41 | COC1CCN(C(=O)OCc2nc(C)c(-c3cccc(-c4cc(F)c5nn[nH]c5c4F)n3)s2)C1 (stereo not drawn) [Example 39] |
| 44 | COCC1CCCN1C(=O)OCc1nc(C)c(-c2cccc(-c3cc(F)c4nn[nH]c4c3F)n2)s1 (stereo not drawn) [Example 40] |
| 75 | Cc1nc(COc2ccccn2)sc1-c1ccnc(-c2cc(F)c3nn[nH]c3c2F)n1 [Example 41] |
| 14 | Cc1nc(CNC(=O)c2cccnn2)sc1-c1nc(-c2cc(F)c3nn[nH]c3c2F)cs1 [Example 43] |
| 25 | Cc1nc(COC(=O)N(C)C)sc1-c1nc(-c2cc(F)c3nn[nH]c3c2F)cs1 [Example 44] |
| 48 | Cc1nc(CN/C(=N/C#N)N(C)C)sc1-c1cccc(-c2cc(F)c3nn[nH]c3c2F)n1 [Example 45] |
| 130 | Cc1nc(COC(=O)N(C)C)sc1-c1ccn(-c2cc(F)c3[nH]nnc3c2F)n1 [Example 46] |
| 25 | Cc1nc(COC(=O)N2CCC(O)CC2)sc1-c1cccc(-c2cc(F)c3nn[nH]c3c2F)n1 [Example 47] |
| 31 | Cc1nc(COCC(=O)N(C)C)sc1-c1nc(-c2cc(F)c3nn[nH]c3c2F)cs1 [Example 48] |
| 47 | Cc1nc(COCC(=O)N(C)C)sc1-c1csc(-c2cc(F)c3[nH]nnc3c2F)n1 [Example 49] |
| 74 | Cc1nc(COC(C)C(=O)N(C)C)sc1-c1csc(-c2cc(F)c3[nH]nnc3c2F)n1 (stereo not drawn) [Example 50] |
| 91 | CC(=O)NCc1nc(C)c(-c2cccc(-c3cc(F)c4nn[nH]c4c3F)n2)s1 [Example 54] |
| 220 | Cc1nc(COc2ccccn2)sc1-c1csc(-c2cc(F)c(F)c(O)c2F)n1 [Example 55] |
| 20 | Cc1nc(COC(=O)N2CC(O)C2)sc1-c1cccc(-c2cc(F)c3nn[nH]c3c2F)n1 [Example 59] |
| 55 | Cc1nc(COC(C)C(=O)N(C)C)sc1-c1cccc(-c2cc(F)c3nn[nH]c3c2F)n1 (stereo not drawn) [Example 60] |
| 43 | Cc1nc(COCC(=O)N(C)C)sc1-c1cccc(-c2cc(F)c3nn[nH]c3c2F)n1 [Example 64] |
| 16 | Cc1nc(COc2ncccn2)sc1-c1csc(-c2cc(F)c3[nH]nnc3c2F)n1 [Example 66] |
| 50 | COC(=O)NCc1nc(C)c(-c2csc(-c3cc(F)c4[nH]nnc4c3F)n2)s1 [Example 67] |
| 200 | COCc1nc(C)c(-c2cccc(-c3cc(F)c4nn[nH]c4c3F)n2)s1 [Example 68] |
| 79 | Cc1nc(COc2ncccn2)sc1-c1ccnc(-c2cc(F)c(O)c(C#N)c2)n1 [Example 69] |
| 200 | Cc1nc(COc2ncccn2)sc1-c1csc(-c2cc(F)c(O)c(F)c2F)n1 [Example 70] |
| 21 | Cc1nc(COC(=O)N2CCC(O)C2)sc1-c1cccc(-c2cc(F)c3nn[nH]c3c2F)n1 (stereo not drawn) [Example 85] |
| 140 | Cc1nc(C)c(-c2csc(-c3cc(F)c4[nH]nnc4c3F)n2)s1 [Example 86] |
| 24 | Cc1nc(COc2cccnn2)sc1-c1cccc(-c2cc(F)c3nn[nH]c3c2F)n1 [Example 88] |
